One may read the EC50 as the concentration giving half of the maximal effect. A word on the CC50: it is the concentration at which the toxic effect on the cells reaches its halfway point. Usually IC50 stands for the concentration that gives 50% inhibition.

Data set [1] relates to Human immunodeficiency virus 1. The data set can be described thus: Antiviral activity against HIV1 3B infected in human MT4 cells assessed as reduction in virus-induced cytopathogenic effect by MTT assay. The conditions noted are these: Human immunodeficiency virus 1, 3B.
Data set [2] has as its system Human immunodeficiency virus 1. Kind of data set: Antiviral activity against HIV1 RES056 infected in human MT4 cells assessed as reduction in virus-induced cytopathogenic effect by MTT assay. The conditions noted are these: Human immunodeficiency virus 1, RES056, MT4.
The subject of data set [3] is Human immunodeficiency virus 2. The data set can be described thus: Antiviral activity against wild type HIV2 ROD infected in human MT4 cells assessed as reduction in virus-induced cytopathogenic effect by MTT assay. The conditions noted are these: Human immunodeficiency virus 2, ROD. Background: Damage to the host cells serves as the signal in cytopathic effect assays.

Data set [4] can be described thus: Cytotoxicity against human MT4 cells assessed as reduction in cell viability by MTT assay. A general note: Tetrazolium dyes change colour on reduction, which living cells bring about.
A short description of data set [5]: Selectivity ratio of CC50 for human MT4 cells to IC50 for HIV1 RES056 infected in MT4 cells.
Data set [6] concerns the target Human immunodeficiency virus type 1 reverse transcriptase (Human immunodeficiency virus 1, UniProt Q72547). Kind of data set: Inhibition of wild type HIV1 reverse transcriptase assessed as reduction in biotin-dUTP incorporation into […] incubated for 1 hrs by ELISA.
The subject of data set [7] is Human immunodeficiency virus 1. Kind of data set: Antiviral activity against HIV1 harboring L100I mutant infected in human MT4 cells assessed as reduction in virus-induced cytopathogenic effect by MTT assay. The conditions noted are these: Human immunodeficiency virus 1, MT4.
Data set [8] has as its system Human immunodeficiency virus 1. The data set can be described thus: Antiviral activity against HIV1 harboring K103N mutant infected in human MT4 cells assessed as reduction in virus-induced cytopathogenic effect by MTT assay. In kind it is functional, organism-based. The following applies: Human immunodeficiency virus 1, MT4.
For data set [9], the system named is Human immunodeficiency virus 1. Kind of data set: Antiviral activity against wild type HIV1 harboring Y181C mutant infected in human MT4 cells assessed as reduction in virus-induced cytopathogenic effect by MTT assay. The following applies: Human immunodeficiency virus 1, MT4.
The test system of data set [10] is Human immunodeficiency virus 1. The data set can be described thus: Antiviral activity against wild type HIV1 harboring Y188L mutant infected in human MT4 cells assessed as reduction in virus-induced cytopathogenic effect by MTT assay. The following applies: Human immunodeficiency virus 1, MT4.
Data set [11] relates to Human immunodeficiency virus 1. The conditions noted are these: Human immunodeficiency virus 1, MT4.
The test system of data set [12] is Human immunodeficiency virus 1. The data set can be described thus: Antiviral activity against HIV1 harboring F227L/V106A mutant infected in human MT4 cells assessed as reduction in virus-induced cytopathogenic effect by MTT assay. The conditions noted are these: Human immunodeficiency virus 1, MT4. In kind it is functional, organism-based.
The next data set in a line: in vitro. The conditions noted are these: human, MT4 cells.

Description for in vitro: Selectivity index, ratio of CC50 for human MT4 cells to EC50 for HIV1 harboring E138K mutant infected in human MT4 cells

With `Cc1cc(C#N)cc(C)c1Oc1nc(NC2CCN(Cc3cccc(C(N)=O)c3)CC2)nc2c1CSCC2`, the EC50 in data set [1] is 15.4 nM; in data set [2], 1640 nM; in data set [3], above 236000 nM. The CC50 in data set [4] was above 236000 nM. The selectivity ratio in data set [5] is above 144. The concentration for half-maximal inhibition (IC50) in [6] worked out at 144 nM.
With `Cc1cc(/C=C/C#N)cc(C)c1Oc1nc(NC2CCN(Cc3ccc([N+](=O)[O-])cc3)CC2)nc2c1CSCC2`, the EC50 in data set [1] was 26.2 nM; in data set [2] it was 160 nM; in data set [3], above 59500 nM. The 50% cytotoxic concentration (CC50) in data set [4] amounted to 59500 nM. Further, the selectivity ratio in [5] was 371. The concentration for half-maximal inhibition (IC50) in data set [6] turned out to be 232 nM.
Turning to `Cc1cc(/C=C/C#N)cc(C)c1Oc1nc(NC2CCN(Cc3cccc(C(N)=O)c3)CC2)nc2c1CSCC2`, the concentration giving a half-maximal response (EC50) in data set [1] was 50.4 nM; in data set [2], 443 nM; in data set [3], above 9450 nM. Also, the 50% cytotoxic concentration (CC50) in data set [4] came to 9450 nM. For the same molecule, the selectivity ratio in data set [5] came to 21. The half-maximal inhibitory concentration (IC50) in data set [6] was 184 nM.
With `Cc1cc(C#N)cc(C)c1Oc1nc(Nc2ccc(C#N)c(F)c2)nc2c1CSCC2`, the EC50 in [1] is 13.5 nM; in data set [2], 262 nM; in data set [3], above 269000 nM. In [4], the 50% cytotoxic concentration (CC50) is 269000 nM. The selectivity ratio in data set [5] came to 1030. Also, the IC50 in [6] amounted to 53 nM.
On to `Cc1cc(/C=C/C#N)cc(C)c1Oc1nc(NC2CCN(Cc3ccc(S(N)(=O)=O)cc3)CC2)nc2c1CSCC2`, for which the half-maximal effective concentration (EC50) amounted to 10.7 nM in data set [1]; 55.4 nM in data set [2]; 4050 nM in data set [3]; 8.13 nM in data set [7]; 9.23 nM in data set [8]; 22.3 nM in [9]. The results for the half-maximal effective concentration (EC50) in data set [10], in [11] and in data set [12] were 37.1 nM, 40.7 nM and 16.3 nM, respectively. In [4], the CC50 was determined as 15100 nM. The selectivity ratio in [5] was determined as 272; in the data set “in vitro”, 370. In addition, the IC50 in data set [6] was 203 nM.
Take `Cc1cc(C#N)cc(C)c1Oc1nc(Nc2ccc(C#N)cn2)nc2c1CSCC2`: the EC50 is 68.7 nM in [1], 256000 nM in data set [2] and above 302000 nM in data set [3]. Moreover, in data set [4], the CC50 is above 302000 nM. In addition, in data set [5], the selectivity ratio was above 1. Also, the 50% inhibitory concentration (IC50) in [6] turned out to be 53 nM.
For `Cc1cc(/C=C/C#N)cc(C)c1Oc1nc(NC2CCN(Cc3cc(=O)[nH]c(=O)[nH]3)CC2)nc2c1CSCC2`, the figures for the EC50 in data set [1], in data set [2] and in data set [3] were 30.8 nM, 881 nM and above 23200 nM, respectively. Also, the half-maximal cytotoxic concentration (CC50) in data set [4] was found to be 23200 nM. Further, the selectivity ratio in data set [5] is 26. For the same molecule, the half-maximal inhibitory concentration (IC50) in [6] came to 171 nM.
Take `Cc1cc(C#N)cc(C)c1Oc1nc(NC2CCN(Cc3ccc(S(C)(=O)=O)cc3)CC2)nc2c1CSCC2`: the EC50 in [1] was 11.1 nM; in data set [2], 125 nM; in data set [3], 5640 nM; in data set [7], 11.6 nM; in data set [8], 6.65 nM; in data set [9] it was 20.8 nM. The EC50 in data set [10] was 18.4 nM; in data set [11], 18.7 nM; in data set [12], 17.1 nM. The cytotoxic concentration (CC50) in data set [4] is 58000 nM. Also, the figures for the selectivity ratio (in data set [5]; in “in vitro”) were 465 and 3100, respectively. For the same molecule, in data set [6], the IC50 was found to be 134 nM.
With `Cc1cc(C#N)cc(C)c1Oc1nc(Nc2ccc(C#N)cc2F)nc2c1CSCC2`, the EC50 in [1] was 45.5 nM; in [2], above 290000 nM; in data set [3] it was above 290000 nM. The CC50 in data set [4] was above 290000 nM. In addition, the selectivity ratio in data set [5] is above 1. Moreover, in data set [6], the IC50 was 65 nM.
On to `Cc1cc(C#N)cc(C)c1Oc1nc(NC2CCN(Cc3ccc(S(N)(=O)=O)cc3)CC2)nc2c1CSCC2`, for which the EC50 in data set [1] is 13.7 nM; in data set [2], 120 nM; in [3], above 221000 nM; in data set [7], 7.88 nM; in data set [8] it was 7.17 nM; in data set [9], 7.44 nM. Besides, the figures for the EC50 in [10], in [11] and in data set [12] were 12.6 nM, 15.9 nM and 15.1 nM, respectively. The CC50 in data set [4] is above 221000 nM. Further, the selectivity ratio was above 1850 in data set [5] and above 13900 in “in vitro”. For the same molecule, the 50% inhibitory concentration (IC50) in [6] came to 151 nM.
As for `Cc1cc(C#N)cc(C)c1Oc1nc(Nc2ccc(C#N)nc2)nc2c1CSCC2`, the results for the half-maximal effective concentration (EC50) in [1], in data set [2] and in data set [3] were 14.1 nM, 2430 nM and above 288000 nM, respectively. Also, the cytotoxic concentration (CC50) in data set [4] came out at 288000 nM. Besides, in data set [5], the selectivity ratio came out at 119. For the same molecule, the IC50 in [6] turned out to be 43 nM.
With `Cc1cc(/C=C/C#N)cc(C)c1Oc1nc(Nc2ccc(C#N)cn2)nc2c1CSCC2`, the 50% effective concentration (EC50) in [1] was 25.8 nM; in data set [2], 608 nM; in data set [3], above 246000 nM. Further, the CC50 in data set [4] came to 246000 nM. In addition, the selectivity ratio in [5] was 404. Also, the concentration for half-maximal inhibition (IC50) in data set [6] stood at 59 nM.
For `Cc1cc(C#N)cc(C)c1Oc1nc(NC2CCN(Cc3ccc([N+](=O)[O-])cc3)CC2)nc2c1CSCC2`, the EC50 in data set [1] was 11.5 nM; in data set [2] it was 2850 nM; in data set [3], above 236000 nM. For the same molecule, the CC50 in [4] is above 236000 nM. In addition, the selectivity ratio in data set [5] was above 83. Further, the IC50 in data set [6] turned out to be 230 nM.
In the case of `Cc1cc(/C=C/C#N)cc(C)c1Oc1nc(Nc2ccc(C#N)cc2F)nc2c1CSCC2`, the EC50 in [1] was 31 nM; in data set [2] it was 5810 nM; in data set [3], above 273000 nM. Also, the 50% cytotoxic concentration (CC50) in data set [4] is above 273000 nM. In data set [5], the selectivity ratio was above 47. The IC50 in [6] is 51 nM.
In the case of `Cc1cc(C#N)cc(C)c1Oc1nc(NC2CCN(Cc3cc(=O)[nH]c(=O)[nH]3)CC2)nc2c1CSCC2`, the half-maximal effective concentration (EC50) was 13.8 nM in data set [1], 3200 nM in [2] and above 25600 nM in data set [3]. For the same molecule, in data set [4], the CC50 is 25600 nM. Moreover, the selectivity ratio in data set [5] is 8. Besides, the half-maximal inhibitory concentration (IC50) in [6] was found to be 89 nM.
Regarding `Cc1cc(/C=C/C#N)cc(C)c1Oc1nc(NC2CCN(Cc3ccc(S(C)(=O)=O)cc3)CC2)nc2c1CSCC2`, the EC50 in data set [1] is 12.6 nM; in [2], 116 nM; in data set [3], 4810 nM; in data set [7] it was 9.24 nM; in data set [8] it was 8.48 nM; in data set [9], 34.1 nM. Besides, the concentration giving a half-maximal response (EC50) came to 60.2 nM in data set [10], 34.8 nM in data set [11] and 14.9 nM in [12]. In addition, in data set [4], the CC50 was 21500 nM. Moreover, the selectivity ratio in data set [5] was 186; in “in vitro” it was 619.
On to `Cc1cc(C#N)cc(C)c1Oc1nc(NC2CCN(Cc3ccc(C(N)=O)cc3)CC2)nc2c1CSCC2`, for which the EC50 in [1] was 9.98 nM; in data set [2], 140 nM; in data set [3], above 236000 nM; in [7] it was 22.3 nM; in [8], 8.8 nM; in data set [9], 21.4 nM. Also, the concentration for a half-maximal effect (EC50) in data set [10] stood at 22.8 nM; in data set [11], 32.9 nM; in data set [12] it was 853 nM. Besides, in data set [4], the CC50 was above 236000 nM. In addition, the results for the selectivity ratio (in data set [5]; in the data set “in vitro”) were above 1690 and above 7180, respectively. Further, the concentration for half-maximal inhibition (IC50) in data set [6] came out at 143 nM.
Take `O=C1Nc2ccc(Cl)cc2[C@@](C#CC2CC2)(C(F)(F)F)O1` [EFAVIRENZ]: the CC50 in data set [4] was above 6340 nM. Also, the 50% effective concentration (EC50) in data set [8] came out at 111 nM.
For `Cc1ccnc2c1NC(=O)c1cccnc1N2C1CC1` [NEVIRAPINE], the concentration for a half-maximal effect (EC50) in data set [2] was above 15000 nM; in data set [3] it was above 15000 nM; in [7], 2220 nM; in data set [8] it was 12300 nM; in data set [9] it was above 15000 nM; in data set [10], above 15000 nM. The EC50 in [11] is 182 nM; in [12], above 15000 nM. The cytotoxic concentration (CC50) in [4] was above 15000 nM.
